Source: ChEMBL document CHEMBL1145546, “Interactive effects of polymethoxy flavones from Citrus on cell growth inhibition in human neuroblastoma SH-SY5Y cells” (Bioorg Med Chem, 2008)
The source made the active and inactive calls. The calls are words filed in the database; no cut-off is given here.

What was measured:
SH-SY5Y [1] = experiment: Reduction of hydrogen peroxide-induced apoptotic cell death in human SHSY5Y cells after 12 hrs; assay type: functional; parameters: scale not given: the % may be the effect or the level left
SH-SY5Y [2] = experiment: Reduction of hydrogen peroxide-induced apoptotic cell death in human SHSY5Y cells assessed as DNA ladder formation after 12 hrs; assay type: functional, cell-based
SH-SY5Y [3] = experiment: Elevation of phosphorylated ERK level in hydrogen peroxide-treated human SHSY5Y cells at 30 uM after 3 hrs by Western blot analysis; assay type: functional, cell-based
SH-SY5Y [4] = experiment: Elevation of phosphorylated p38 level in hydrogen peroxide-treated human SHSY5Y cells at 30 uM after 3 hrs by Western blot analysis; assay type: functional, cell-based
SH-SY5Y [5] = experiment: Elevation of phosphorylated JNk level in hydrogen peroxide-treated human SHSY5Y cells at 30 uM after 3 hrs by Western blot analysis; assay type: functional, cell-based
SH-SY5Y [6] = experiment: Growth inhibition of human SHSY5Y cells assessed as viable cells after 48 hrs by Trypan blue dye exclusion test; assay type: functional, cell-based

Question: `COc1ccc(-c2cc(=O)c3c(OC)c(OC)c(OC)c(OC)c3o2)cc1OC` [NOBILETIN] was tested. Which Activity (SH-SY5Y [1]) did it give?
Answer: 30%

Question: And the Activity (SH-SY5Y [2])?
Answer: Active

Question: What about the Activity (SH-SY5Y [3]) of the same compound?
Answer: Active

Question: What about the Activity (SH-SY5Y [4]) of the same compound?
Answer: Active

Question: What about the Activity (SH-SY5Y [5]) of the same compound?
Answer: Active

Question: With `COc1ccc(-c2cc(=O)c3c(OC)c(OC)c(OC)c(OC)c3o2)cc1` [TANGERETIN] as the compound, how does the IC50 (SH-SY5Y [6]) read?
Answer: 41.2 µM

Question: With `COc1ccc(-c2cc(=O)c3c(O)c(OC)c(OC)c(OC)c3o2)cc1OC` [5-DEMETHYLNOBILETIN] as the compound, how does the IC50 (SH-SY5Y [6]) read?
Answer: 32.5 µM
